Assay results from patent US5882905A, “Thermostable α-L-arabinofuranosidase from Aureobasidium pullulans” (The United States of America as represented by the …, priority 1997, dated 1999).
Where “and” joins values, the source holds several entries; their conditions need not be identical. Identical values can stand only once. Entries after “also recorded” stand apart in the source; their conditions may differ.

How the values were obtained:
[1] = tested on: α-L-AFase; experiment: Effect of L-arabinose and other sugars on α-L-AFase activity; format: biochemical, Aureobasidium pullulans
Experimental: (§1) Enzyme assay. αL-arabinofuranosidase (α-L-AFase) activity was assayed in a reaction mixture (1 ml) containing 1 mM p-nitrophenyl α-L-arabinofuranoside (pNPαAF), 50 mM acetate buffer, pH 4.5 and appropriately diluted enzyme solution. After incubation at 50° C. for 30 min, the reaction was stopped by adding ice-cold 0.5M Na2 CO3 (1 ml) and the color formed was measured at 405 nm. One unit (U) of α-L-AFase activity was defined as the amount of enzyme that liberates 1 μmol p-nitrophenol (pNP) per min in the reaction mixture under these assay conditions.
Effect of L-arabinose and other sugars.

[2] = tested on: purified α-L-AFase; experiment: Substrate specificity and kinetic analysis with aryl-glycosides; format: biochemical, Aureobasidium pullulans; conditions: for Relative initial rate of hydrolysis (percentage of that obtained with pNPαAF): substrate 4 mM, enzyme 28 mU/ml, 15 min reaction
Experimental: as §1
(§2) Other methods. Protein was estimated by the method of Lowry et al. (1951, J. Biol. Chem., 193:265-275) with bovine serum albumin as the standard. Protein in the column effluents was monitored by measuring absorbance at 280 nm. Sodium dodecyl sulfate-polyacrylamide gel electrophoresis (SDS-PAGE) was performed on a 7.5% gel according to Laemmli (1970, Nature, 227:680-685). The molecular weight of the native enzyme was determined by gel filtration on Bio-Gel A-0.5m as described by Andrews (1965, Biochem. J., 91:595-606), using apoferritin (MW 443,000), sweet potato β-amylase (200,000), yeast alcohol dehydrogenase (150,000), bovine serum albumin (66,000) and ovalbumin (45,000) as standard proteins. […] The Km and Vmax values were determined by the double-reciprocal plot method of Lineweaver-Burk (1934, J. Am. Chem. Soc., 56:658-666) using the KINET software program. Arabinose analysis was performed by HPLC (Spectra-Physics, San Jose, Calif.) using an ion moderated partition chromatography column (Aminex HPX-87C). The column was maintained at 85° C., and the sugars were eluted with Milli-Q water at a flow rate of 0.6 ml/min. Peaks were detected by refractive index, and identified and quantified by comparison to retention times of authentic standards (L-arabinose, D-glucose, D-xylose).
Substrate specificity and kinetic analysis. Relative initial rates of hydrolysis of p-nitrophenyl-α-L-arabinopyranoside, p-nitrophenyl-β-D-glucoside, p-nitrophenyl-β-D-glucoside, p-nitrophenyl-β-D-xyloside, p-nitrophenyl-β-D-cellobioside and p-nitrophenyl-β-D-galactoside (4 mM each) by the purified α-L-AFase (28 mU/ml) were 3.4, 2.3, 1.7, 3.1, 0.0, and 0.1%, respectively (expressed as a percentage of that obtained with pNPαAF at pH 4.5 and 75° C., 15 min reaction). The rate dependence of the enzymatic reaction on the pNPαAF concentration at pH 4.5 and 75° C. followed Michaelis-Menten kinetics.

[3] = tested on: Aureobasidium pullulans Y-21792; experiment: Effect of carbon source on growth and α-L-arabinofuranosidase production in shake flasks; format: cell-based; conditions: for Growth (A660) / L-arabinosidase (mU/ml culture) Supernatant / L-arabinosidase (mU/ml culture) Whole broth / time of maximum enzyme production, Supernatant (figure in parenthesis) / time of maximum enzyme production, Whole broth (figure in parenthesis): carbon source 1% w/v, 28° C.; for Growth (A660): 96 h, averages of duplicates; for L-arabinosidase (mU/ml culture) Supernatant / L-arabinosidase (mU/ml culture) Whole broth: maximum in time course; for time of maximum enzyme production, Supernatant (figure in parenthesis) / time of maximum enzyme production, Whole broth (figure in parenthesis): time course over 96 h; for share of the whole culture broth α-L-AFase activity that is extracellular: cultures grown on the named carbon source
Experimental: Organism, cultivation and enzyme production. The color variant strain NRRL Y-21792 of A. pullulans (also available as NRRL Y-12974) was obtained from the ARS culture collection, NCAUR, Peoria, Ill. The medium used for seed culture and enzyme production was CCY medium (Slininger et al., 1982, Biotechnol. Bioeng., 23:371-384) with the following composition (g/L): 10 ml of solution A, 10 ml of solution B. 100 ml of solution C, 10 g of yeast extract and 10 g of oat spelt xylan. Solution A was a trace mineral solution having the following ingredients (per L): 1.1 g of CaO, 0.4 g of ZnO, 5.4 g of FeCl3.6 H2 O, 0.25 g of CuSO4. 5H2 O, 0.24 g of CoCl2. 6H2 O, 0.06 g of H3 BO3 and 13 ml of concentrated HCl. Solution B (per L) contained 10.1 g of MgO and 45 ml of concentrated HCl. Solution C (per L) contained 64 g of urea, 12 g of KH2 PO4 and 1.8 g of Na2 HPO4. Oat spelt xylan was sterilized separately. The pH of the medium was adjusted to 5.0 with 1M HCl before inoculation. A 125-ml Erlenmeyer flask containing 50 ml of medium with oat spelt xylan (1%, w/v) as a carbon source was inoculated with a loopful of cells taken from a stock slant and incubated at 28° C. on a rotary shaker (200 rpm) for 2 days. The shake flasks (250-ml Erlenmeyer flask containing 100 ml medium with 1% oat spelt xylan) were inoculated with 2 ml of this culture and cultivated on a rotary shaker (200 rpm) at 28° C. After 3 days, the cells were removed from the culture broth by centrifugation (18,000×g, 20 min). The resulting supernatant solution was used as the crude enzyme preparation.
Medium and enzyme production. The media used for seed culture and enzyme production were prepared as described in Example 1 with the exception of the particular carbon source. The shake flasks (125-ml Erlenmeyer flask containing 50 ml medium) were inoculated with 2 ml of seed culture (prepared using L-arabinose as carbon source) and cultivated on a rotary shaker (200 rpm) at 28° C. for 4 days. At intervals, ~2 ml of the whole culture broth were withdrawn, and the cells and unutilized insoluble substrates were removed from the culture broth by centrifugation (18,000×g, 20 min).
Analytical procedures. α-L-AFase activity was assayed as described in Example 1. Cell growth was monitored by measuring optical density of the culture broth at 660 nm (A660).

[4] = tested on: α-L-AFase; experiment: Effect of metal ions and reagents on α-L-AFase activity; format: biochemical, Aureobasidium pullulans
Experimental: as §1
Effect of metal ions and reagents.

[5] = tested on: purified α-L-AFase; experiment: Hydrolysis of arabinan, debranched arabinan and arabinoxylans (arabinose by HPLC); format: biochemical, Aureobasidium pullulans
Experimental: FIG. 4. Time course of arabinan (1%, w/v) hydrolysis by purified α-L-arabinofuranosidase (0.445 U/ml) from A. pullulans Y-21792 at pH 4.5 and 50° C.
as §2, with “Arabinose analysis was performed by HPLC (Spectra-Physics, San Jose, Calif.) using an ion moderated partition chromatography column (Aminex HPX-87C). The column was maintained at 85° C., and the sugars were eluted with Milli-Q water at a flow rate of 0.6 ml/min.” left out
Hydrolysis of arabinan, debranched arabinan and arabinoxylans. […] Only arabinose was detected in the reaction product. […]

[6] = biological target: α-L-AFase from P. capsulatum; conditions: Filho et al.; read-out: Ki (competitive inhibition); cited from earlier work
[7] = tested on: α-L-AFase from A. nidulans; conditions: L-Arabinose at 80 mM; Fernandez-Espinar et al.; cited from earlier work

Molecule: O=C[C@H](O)[C@@H](O)[C@@H](O)[C@H](O)CO [galactose]
- inhibition of α-L-AFase activity ([1]; each at 0.11M): did not inhibit

Molecule: O=[N+]([O-])c1ccc(O[C@@H]2O[C@@H](CO)[C@H](O)[C@H]2O)cc1 [pNPαAF, p-nitrophenyl α-L-arabinofuranoside]
- Vmax ([2]; pH 4.5 and 75° C., reciprocal plot): 6.99 μmol pNP. min^-1.mg^-1 protein
- Km ([2]; pH 4.5 and 75° C., reciprocal plot, read-out: apparent Km): 260 µM
- Substrate inhibition ([2]; tested up to 8 mM): not observed; also recorded: not inhibited

Molecule: OC[C@H](O)C(O)[C@@H](O)CO [L-arabitol]
- inhibition of α-L-AFase activity ([1]; each at 0.11M): did not inhibit
- Growth (A660) [3]: 7.2
- L-arabinosidase (mU/ml culture) Supernatant [3]: 95 mU/ml culture
- L-arabinosidase (mU/ml culture) Whole broth [3]: 441 mU/ml culture
- time of maximum enzyme production, Supernatant (figure in parenthesis) [3]: 48
- time of maximum enzyme production, Whole broth (figure in parenthesis) [3]: 34
- share of the whole culture broth α-L-AFase activity that is extracellular [3]: 22%

Molecule: [Mg+2] [Mg^2+]
- requirement of metal ion for activity ([4]; 5 mM): did not require

Molecule: O=C[C@H](O)[C@@H](O)[C@H](O)[C@H](O)CO [glucose]
- inhibition of α-L-AFase activity ([1]; each at 0.11M): did not inhibit

Molecule: O=[N+]([O-])c1ccc(O[C@@H]2O[C@H](CO)[C@@H](O)[C@H](O)[C@H]2O)cc1 [p-nitrophenyl-β-D-glucoside]
- Relative initial rate of hydrolysis (percentage of that obtained with pNPαAF) ([2]; pH 4.5 and 75° C.): 2.3% and 1.7%

Molecule: O=[N+]([O-])c1ccc(O[C@@H]2O[C@H](CO)[C@@H](O[C@@H]3O[C@H](CO)[C@@H](O)[C@H](O)[C@H]3O)[C@H](O)[C@H]2O)cc1 [p-nitrophenyl-β-D-cellobioside]
- Relative initial rate of hydrolysis (percentage of that obtained with pNPαAF) ([2]; pH 4.5 and 75° C.): 0.0%

Molecule: [Co+2] [Co^2+]
- requirement of metal ion for activity ([4]; 0.5 mM): did not require

Molecule: O=[N+]([O-])c1ccc(O[C@@H]2OC[C@H](O)[C@H](O)[C@H]2O)cc1 [p-nitrophenyl-α-L-arabinopyranoside]
- Relative initial rate of hydrolysis (percentage of that obtained with pNPαAF) ([2]; pH 4.5 and 75° C.): 3.4%

Molecule: arabinogalactan
- arabinose detected by HPLC as product of hydrolysis [5]: no arabinose was detected
- Growth (A660) [3]: 3.1
- L-arabinosidase (mU/ml culture) Supernatant [3]: 9 mU/ml culture
- L-arabinosidase (mU/ml culture) Whole broth [3]: 45 mU/ml culture
- time of maximum enzyme production, Supernatant (figure in parenthesis) [3]: 34
- time of maximum enzyme production, Whole broth (figure in parenthesis) [3]: 34

Molecule: O=[N+]([O-])c1ccc(O[C@@H]2OC[C@@H](O)[C@H](O)[C@H]2O)cc1 [p-nitrophenyl-β-D-xyloside]
- Relative initial rate of hydrolysis (percentage of that obtained with pNPαAF) ([2]; pH 4.5 and 75° C.): 3.1%

Molecule: O=C[C@H](O)[C@@H](O)[C@H](O)CO [Xylose]
- inhibition of α-L-AFase activity ([1]; each at 0.11M): did not inhibit
- Growth (A660) [3]: 8.0
- L-arabinosidase (mU/ml culture) Supernatant [3]: 88 mU/ml culture
- L-arabinosidase (mU/ml culture) Whole broth [3]: 129 mU/ml culture
- time of maximum enzyme production, Supernatant (figure in parenthesis) [3]: 48
- time of maximum enzyme production, Whole broth (figure in parenthesis) [3]: 48
- share of the whole culture broth α-L-AFase activity that is extracellular [3]: About 70%

Molecule: O[C@H](CS)[C@H](O)CS (racemic) [DTT, dithiothreitol, reference compound]
- effect on enzyme activity ([4]; 10 mM): not affected; also recorded: not inhibited

Molecule: O=[N+]([O-])c1ccc(O[C@@H]2O[C@H](CO)[C@H](O)[C@H](O)[C@H]2O)cc1 [p-nitrophenyl-β-D-galactoside]
- Relative initial rate of hydrolysis (percentage of that obtained with pNPαAF) ([2]; pH 4.5 and 75° C.): 0.1%

Molecule: O=C[C@@H](O)[C@@H](O)[C@H](O)[C@H](O)CO [mannose]
- inhibition of α-L-AFase activity ([1]; each at 0.11M): did not inhibit

Molecule: [Mn+2] [Mn^2+]
- requirement of metal ion for activity ([4]; 5 mM): did not require

Molecule: OC[C@@H](O)[C@H](O)[C@@H](O)CO [xylitol]
- inhibition of α-L-AFase activity ([1]; each at 0.11M): did not inhibit
- Growth (A660) [3]: 9.1
- L-arabinosidase (mU/ml culture) Supernatant [3]: 47 mU/ml culture
- L-arabinosidase (mU/ml culture) Whole broth [3]: 94 mU/ml culture
- time of maximum enzyme production, Supernatant (figure in parenthesis) [3]: 58
- time of maximum enzyme production, Whole broth (figure in parenthesis) [3]: 48

Molecule: O=C(O)c1cc[c]([Hg][Cl])cc1 [pCMB, p-chloromercuribenzoic acid, reference compound]
- effect on enzyme activity ([4]; 0.2 mM): not affected; also recorded: not inhibited

Molecule: [Ca+2] [Ca^2+]
- requirement of metal ion for activity ([4]; 5 mM): did not require

Molecule: O=C[C@H](O)[C@@H](O)[C@@H](O)CO [L-arabinose]
- inhibition of α-L-AFase activity ([1]; up to 1.2M (21.6%)): substantially no inhibition; also recorded: not at all inhibitory; also recorded: not inhibited
- Growth (A660) [3]: 7.6
- L-arabinosidase (mU/ml culture) Supernatant [3]: 199 mU/ml culture
- L-arabinosidase (mU/ml culture) Whole broth [3]: 500 mU/ml culture
- time of maximum enzyme production, Supernatant (figure in parenthesis) [3]: 48
- time of maximum enzyme production, Whole broth (figure in parenthesis) [3]: 58
- share of the whole culture broth α-L-AFase activity that is extracellular [3]: 40%
- Ki [6]: 16.4 mM
- reduction of the hydrolytic activity [7]: 40%
